Reference: patent publication US20240122865A1, “Methods of Protecting RNA” (Pfizer Inc., priority 2021, published 2024)
pEC50: −log10 of the molar value.

Columns and labels:
Format in all cases: biochemical, Trichoderma atroviride
[1] = system: Chi18 model RNA; assay: TapeStation Assay, Chi18 model RNA; design: Conc. chi18#1 / Conc. chi18#2: unit not given here; conditions: for % Control N = 1 / % Control N = 2 / % Control Avg.: Chi18 RNA, 20 mM amino acids, 50 mM CAPS pH 11, 50° C. 15 min; for % Control N = 1 / % Control N = 2: vs Time 0; for % Control Avg.: vs Time 0, Avg N=2; for Conc. chi18#1 / Conc. chi18#2: intact Chi18 RNA after 15 min at 50° C.; for Conc. chi18#1: 20 mM amino acids in 50 mM CAPS pH 11, run #1; for Conc. chi18#2: 20 mM amino acids in 50 mM CAPS pH 11, run #2
Procedure, shortened: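 Chi18 or FgenL model RNA at 50 ng/μL in 50 mM CAPS pH 11 was mixed with amino acids (stocks in CAPS, readjusted to >pH 11) and heated at 50° C for 0 or 15 minutes; time-0 samples stayed on ice. Intact RNA was measured by capillary electrophoresis with optical detection and compared with a no-degradation baseline.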

[2] = system: FgenL mRNA construct; assay: Size Exclusion Base Hydrolysis Degradation Assay, FgenL; conditions: 25 mM amino acid; for T0 R1 peak area at 250 nm: FgenL 0.1 mg/mL, 50 mM CAPS, T=0, replicate 1; for T2 Avg, peak area as percentage of T=0 / T2 R1 peak area at 250 nm / T10 Avg, peak area as percentage of T=0 / T10 R1 peak area at 250 nm / T24 Avg, peak area as percentage of T=0 / T24 R1 peak area at 250 nm / T0 Avg, peak area as percentage of T=0: FgenL; for T2 Avg, peak area as percentage of T=0 / T2 R1 peak area at 250 nm / T10 Avg, peak area as percentage of T=0 / T10 R1 peak area at 250 nm / T24 Avg, peak area as percentage of T=0 / T24 R1 peak area at 250 nm: 50 mM CAPS pH 11, room temperature; for T2 Avg, peak area as percentage of T=0 / T2 R1 peak area at 250 nm: 2 hrs; for T2 R1 peak area at 250 nm / T10 R1 peak area at 250 nm / T24 R1 peak area at 250 nm: replicate 1; for T10 Avg, peak area as percentage of T=0 / T10 R1 peak area at 250 nm: 10 hrs; for T24 Avg, peak area as percentage of T=0 / T24 R1 peak area at 250 nm: 24 hrs; for T0 Avg, peak area as percentage of T=0: T=0 (reference)
Procedure, shortened: (§1)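 mRNA (diluted to 1.0 mg/mL) preincubated 1 h with amino acid, then brought to pH 11 with CAPS and NaOH at room temperature. Intact mRNA quantified by size-exclusion UPLC, peak area at 250 nm in the T=0 elution window, expressed as percentage of T=0 at 2, 10 and 24 hrs.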

[3] = system: Chi18 mRNA construct; assay: Size Exclusion Base Hydrolysis Degradation Assay, Chi18; conditions: for T0 R1 peak area at 250 nm: Chi18 0.1 mg/mL, 25 mM amino acid, 50 mM CAPS, T=0, replicate 1; for T2 Avg, peak area as percentage of T=0 / T2 R1 peak area at 250 nm / T10 Avg, peak area as percentage of T=0 / T10 R1 peak area at 250 nm / T24 Avg, peak area as percentage of T=0 / T24 R1 peak area at 250 nm / T0 Avg, peak area as percentage of T=0: Chi18, 25 mM amino acid; for T2 Avg, peak area as percentage of T=0 / T2 R1 peak area at 250 nm / T10 Avg, peak area as percentage of T=0 / T10 R1 peak area at 250 nm / T24 Avg, peak area as percentage of T=0 / T24 R1 peak area at 250 nm: 50 mM CAPS pH 11, room temperature; for T2 Avg, peak area as percentage of T=0 / T2 R1 peak area at 250 nm: 2 hrs; for T2 R1 peak area at 250 nm / T10 R1 peak area at 250 nm / T24 R1 peak area at 250 nm: replicate 1; for T10 Avg, peak area as percentage of T=0 / T10 R1 peak area at 250 nm: 10 hrs; for T24 Avg, peak area as percentage of T=0 / T24 R1 peak area at 250 nm: 24 hrs; for T0 Avg, peak area as percentage of T=0: T=0 (reference)
Procedure, shortened: as §1

[4] = target: Chi18 model RNA; assay: Droplet Digital Polymerase Chain Reaction (ddPCR) Assay, Chi18; conditions: percent protection, pH 11.0, 30° C., 16 hours, n = 2
Procedure, shortened: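 Chi18 (25 fg/μL) or FgenL (10 fg/μL) RNA at pH 11.0 incubated 16 h with amino acids (10-point half-log series, ~300 mM top stock in CAPS), at 30° C or 44° C respectively. Intact RNA reverse-transcribed, ddPCR 5′-positive droplet fraction taken as protection; EC50 from four-parameter logistic fit.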

[5] = system: FgenL model RNA; conditions: percent protection, pH 11.0, 44° C., 16 hours, n = 2

SMILES	% Control N = 1 [1]	% Control N = 2 [1]	% Control Avg. [1]	Conc. chi18#1 [1]	T0 R1 peak area at 250 nm [2]	T2 Avg, peak area as percentage of T=0 [2]	T2 R1 peak area at 250 nm [2]	T10 Avg, peak area as percentage of T=0 [2]	T10 R1 peak area at 250 nm [2]	T24 Avg, peak area as percentage of T=0 [2]	T24 R1 peak area at 250 nm [2]	T0 Avg, peak area as percentage of T=0 [2]	T0 R1 peak area at 250 nm [3]	T2 Avg, peak area as percentage of T=0 [3]	T2 R1 peak area at 250 nm [3]	T10 Avg, peak area as percentage of T=0 [3]	T10 R1 peak area at 250 nm [3]	T24 Avg, peak area as percentage of T=0 [3]	T24 R1 peak area at 250 nm [3]	T0 Avg, peak area as percentage of T=0 [3]	also measured
N[C@@H](Cc1ccccc1)C(=O)O [Phenylalanine]	17.2%	25.3%	21.3%	9.19	18152	62.2%	12662	1.7%	605	0.0%	0	100.0%	30537	72.1%	22175	16.3%	3615	0.0%	0	100.0%	Conc. chi18#2 [1]: 13.4; pEC50 [4]: < 1.74; pEC50 [5]: < 1.52
O=C(O)[C@@H]1CCCN1 [Proline]	37.0%	34.6%	35.8%	19.7	17907	16.6%	3380	0.0%	0	0.0%	0	100.0%	12033	72.0%	7330	28.5%	2712	0.0%	0	100.0%	Conc. chi18#2 [1]: 18.3; pEC50 [4]: < 1.52; pEC50 [5]: < 1.52
N[C@@H](CO)C(=O)O [Serine]	42.2%	42.2%	42.2%	22.5	17044	46.6%	7928	11.3%	0	0.0%	0	100.0%	31778	150.4%	19639	0.0%	0	0.0%	0	100.0%	pEC50 [4]: < 1.52; pEC50 [5]: < 1.52
